Data set [1] relates to Trypanosoma brucei rhodesiense. Briefly: Antitrypanosomal activity against Trypanosoma brucei rhodesiense assessed as growth inhibition. The data set is classed as functional, organism-based.
In another data set the test system is Giardia intestinalis. Briefly: Antiprotozoal activity against Giardia lamblia assessed as growth inhibition. The data set is classed as functional, organism-based. The settings on record: Giardia duodenalis.
The next data set deals with L6. As to the kind of experiment: Cytotoxicity against rat L6 cells. The data set is classed as cell-based.
Another data set relates to Trypanosoma cruzi. As to the kind of experiment: Antitrypanosomal activity against Trypanosoma cruzi assessed as growth inhibition. The data set is classed as functional, organism-based.
In the next data set the test system is Plasmodium falciparum. Briefly: Antiplasmodial activity against Plasmodium falciparum assessed as growth inhibition. It counts as functional, organism-based.
Another data set concerns Mus musculus. Briefly: Toxicity in mouse infected with Trypanosoma brucei rhodesiense assessed as death at 50 mg/kg, ip qd after 2 administeration. It counts as organism-based. On the set-up: dose 50 mg/kg, route intraperitoneal. The settings on record: in vivo.
The test system of data set [2] is Trypanosoma brucei rhodesiense. Briefly: In vivo […] activity against Trypanosoma brucei rhodesiense infected mouse model assessed as clear parasitaemia at 50 mg/kg, ip qd after 4 days. It counts as functional, organism-based. On the set-up: dose 50 mg/kg.
Data set [3] has as its system Trypanosoma brucei rhodesiense. Briefly: Antitrypanosomal activity against Trypanosoma brucei rhodesiense infected mouse model assessed as clear parasitaemia at 50 mg/kg, ip qd for 4 days measured on day 11. It counts as functional, organism-based. Details: dose 50 mg/kg.
Data set [4] relates to Trypanosoma brucei rhodesiense. As to the kind of experiment: Antitrypanosomal activity against Trypanosoma brucei rhodesiense infected mouse model assessed as clear parasitaemia at 50 mg/kg, ip qd for 4 days measured on day 9. It counts as functional, organism-based. Details: dose 50 mg/kg.

Active and inactive are the calls of the source. The calls are words filed in the database; no cut-off is given here.

Regarding `Nc1nc(N)nc(Nc2ccc([As]3SCC(CO)S3)cc2)n1` (centres undefined) [MELARSOPROL], in data set [1], the half-inhibitory concentration (IC50) came out at 3 nM.
As for `Cc1ncc([N+](=O)[O-])n1CCO` [METRONIDAZOLE], the IC50 with Giardia intestinalis amounted to 580 nM.
`CCNC(=O)c1noc(-c2cc(C(C)C)c(O)cc2O)c1NC(=O)[C@@H]1CC[C@H](C(=O)OC)C1`: the IC50 with L6 worked out at 40 nM; in data set [1] it was 763 nM; in the data set with Trypanosoma cruzi it was 1460 nM; in the data set with Plasmodium falciparum, 26 nM; in the data set with Giardia intestinalis, 6430 nM.
On the same counts, the results for `CCNC(=O)c1noc(-c2cc(C(C)C)c(O)cc2O)c1NC(=O)c1ccco1` are 25 nM, 12 nM, 1380 nM, 17 nM and 2360 nM.
On to `O=C(Cn1ccnc1[N+](=O)[O-])NCc1ccccc1` [BENZNIDAZOLE], for which the IC50 with Trypanosoma cruzi was determined as 409 nM.
On to `CCNC(=O)c1nnn(-c2cc(C(C)C)c(O)cc2O)c1-c1ccc(CNCN2CCOCC2)cc1`, for which the IC50 in the data set on L6 stood at 264 nM; in [1] it was 4 nM; in the data set with Trypanosoma cruzi, 17500 nM; in the data set on Plasmodium falciparum, 4 nM; in the data set with Giardia intestinalis, 4460 nM. Further, the Activity result in the data set on Mus musculus was “Toxic”.
For the compound `CCNC(=O)c1noc(-c2cc(C(C)C)c(O)cc2O)c1NC(=O)c1cc(CN2CCOCC2)on1`, the IC50 in the data set with L6 is 279 nM; in [1] it was 10 nM; in the data set with Trypanosoma cruzi it was 8060 nM; in the data set with Plasmodium falciparum it was 36 nM; in the data set on Giardia intestinalis, 12800 nM.
On the same counts, the results for `CCNC(=O)c1noc(-c2cc(C(C)C)c(O)cc2O)c1NC(=O)c1cc(CC)on1` are 20 nM, 18 nM, 554 nM, 35 nM and 4060 nM.
Take `CCNC(=O)c1noc(-c2cc(C(C)C)c(O)cc2O)c1NC(=O)CCN1CCOCC1`: the half-inhibitory concentration (IC50) with L6 came out at 146 nM; in data set [1] it was 22 nM; in the data set on Trypanosoma cruzi, 16700 nM; with Plasmodium falciparum, 37 nM; in the data set on Giardia intestinalis, 983 nM. The outcome in [2] and in data set [3] was Active.
`CCNC(=O)c1noc2c1CN(C(=O)c1cc(C(C)C)c(O)cc1O)CC2`: the IC50 with L6 turned out to be 110 nM; in [1], 971 nM; in the data set with Trypanosoma cruzi, 996 nM; in the data set with Plasmodium falciparum it was 4520 nM; in the data set on Giardia intestinalis, 4360 nM.
Regarding `CCNC(=O)c1noc(-c2cc(C(C)C)c(O)cc2O)c1NC(=O)[C@H]1CC[C@H](CNS(=O)(=O)c2ccc(F)cc2)CC1`, the IC50 in the data set with L6 was found to be 888 nM; in data set [1], 126 nM; in the data set with Trypanosoma cruzi it was 4200 nM; in the data set on Plasmodium falciparum, 117 nM; with Giardia intestinalis, 7570 nM.
On the same counts, the results for `CCOC(=O)c1noc2c1CN(C(=O)c1cc(C(C)C)c(O)cc1O)CC2` are 563 nM, 52400 nM, 616 nM, 7260 nM and 2460 nM.
On the same counts, the results for `CCNC(=O)c1noc(-c2cc(C(C)C)c(O)cc2O)c1NC(=O)C1CCC(OC)CC1` (centres undefined) are 15 nM, 4 nM, 2700 nM, 12 nM and 8110 nM.
On the same counts, the results for `CCNC(=O)c1nnn(-c2cc(C(C)C)c(O)cc2O)c1-c1ccc(CC2CCCC2)cc1` are 8 nM, 1 nM, 728 nM, 2 nM and 356 nM.
As to `CCNC(=O)c1nnn(-c2cc(C(C)C)c(O)cc2O)c1-c1ccc(CN2CCOCC2)cc1`, the IC50 was determined as 2 nM in the data set on L6; 1 nM in data set [1]; 27 nM with Trypanosoma cruzi; 1 nM with Plasmodium falciparum; 67 nM with Giardia intestinalis.
For `COc1cc([C@@H]2c3cc4c(cc3[C@H](O)[C@H]3COC(=O)[C@H]23)OCO4)cc(OC)c1OC` [PODOFILOX], the IC50 in the data set on L6 is 5 nM.
On to `CCNC(=O)c1noc(-c2cc(C(C)C)c(O)cc2O)c1NC(=O)c1ccc(CN2CCOCC2)cc1`, for which the IC50 with L6 stood at 201 nM; in data set [1] it was 18 nM; with Trypanosoma cruzi it was 6590 nM; with Plasmodium falciparum it was 25 nM; in the data set with Giardia intestinalis, 9740 nM. Moreover, the result in [2] and in data set [4] was Active.
As to `CCNC(=O)c1nnn(-c2cc(C(C)C)c(O)cc2O)c1-c1ccc(Cn2ccnc2)cc1`, the IC50 came to 11 nM in the data set with L6; 3 nM in [1]; 4960 nM with Trypanosoma cruzi; 1 nM in the data set on Plasmodium falciparum; 400 nM in the data set on Giardia intestinalis.
On to `CCNC(=O)c1noc(-c2cc(C(C)C)c(O)cc2O)c1NC(=O)c1ccc(OC)cc1`, for which the half-inhibitory concentration (IC50) in the data set with L6 was 7 nM; in data set [1], 14 nM; in the data set with Trypanosoma cruzi it was 435 nM; in the data set with Plasmodium falciparum it was 29 nM; in the data set on Giardia intestinalis, 3190 nM.

One may read the IC50 as the point on the concentration scale where inhibition reaches its midpoint.

Values taken from ChEMBL document CHEMBL3352293, “Exploring in vitro and in vivo Hsp90 inhibitors activity against human protozoan parasites” (Bioorg Med Chem Lett, 2015).
